Assay results published in patent US12416639B2, “Reagents and methods for detecting protein lysine lactylation” (Jingjie PTM Biolab (Hangzhou) Co., Inc, priority 2018, dated 2025).
One block for each compound: values may come before it.

What was measured:
MCF-7 cells [1] = assay: Histone Kla levels in MCF-7 cells by immunoblot (pan anti-Kla); format: cell-based, human
Description: (§1) Intracellular lactate (a and d) and histone Kla levels (b and c) were measured from MCF-7 cells cultured in different glucose concentrations or different 2-DG concentrations in the presence of 25 mM glucose for 24 hours. Lactate was measured by a lactate colorimetric kit; n=3 biological replicates; statistical significance was determined using one-way ANOVA followed by Sidak's multiple comparisons test. Immunoblots was carried out using acid-extracted histone samples. The pan anti-Kla and anti-Kac immunoblots indicate molecular weights between 10 kD and 15 kD. e, Regulation of glycolysis and lactate production by diverse metabolic modulators. f, Intracellular lactate levels were measured in MCF-7 cells treated with indicated glycolysis modulators for 24 hours. N=3 biological replicates; statistical significance was determined using one-way ANOVA followed by Dunnett's multiple comparisons test. g-i, Immunoblots of acid extracted histones (Rotenone and DCA) or whole cell lysates (Oxamate) from MCF-7 cells in response to different glycolysis modulators. j, Intracellular lactate levels were measured in MCF-7 cells in response to hypoxia. N=4 biological replicates; statistical significance was determined using unpaired t test (Two-tailed). k, Immunoblots of acid extracted histones from MCF-7 cells under hypoxia (1% oxygen) for indicated time points. a, d, f, j, Graphs show mean with s.e.m. b, c, g, h, i, k, Data represent three independent experiments. […]

MCF-7 cells [2] = assay: Intracellular lactate in MCF-7 cells (lactate colorimetric kit); format: cell-based, human; details: 24 hours
Description: as §1

MCF-7 cells [3] = assay: U-13C6 glucose labeling followed by MS/MS of histone Kla and Kac in MCF-7 cells; format: cell-based, human
Description: The peptide samples were loaded onto a home-made capillary column (10 cm length×[…], 3 μm particle size, Dr. Maisch GmbH, Ammerbuch, Germany) connected to an EASY-nLC 1000 system (Thermo Fisher Scientific, Waltham, MA). Peptides were separated and eluted with a gradient of 2% to 90% HPLC buffer B (0.1% formic acid in acetonitrile, v/v) in buffer A (0.1% formic acid in water, v/v) at a flow rate of 200 nL/min over 60 min (34 min for coelution studies). The eluted peptides were then ionized and analyzed by a Q-Exactive mass spectrometer (Thermo Fisher Scientific, Waltham, MA). Full MS was acquired in the Orbitrap mass analyzer over the range m/z 300-1400 with a resolution of 70,000 at m/z 200. The 12 most intense ions with charge ≥2 were fragmented with normalized collision energy of 27 and tandem mass spectra were acquired with a mass resolution of 17500 at m/z 200.
MCF-7 cells were cultured in DMEM high glucose media plus 10% FBS. To be labeled by isotopic lactate, cells were treated with 10 mM of ^13C3 sodium L-lactate for 24 hours. To be labeled by isotopic glucose, cells were switched to DMEM No-Glucose media (Gibco) for 24 hours, followed by supplementation with 25 mM of U-^13C6 D-glucose and continued culturing for three passages. Histones were extracted, digested with trypsin, immunoprecipitated using a pan anti-Kla antibody, and analyzed by HPLC/MS/MS as described above.

MCF-7 cells [4] = assay: Hypoxia-induced lactate production and histone Kla; format: cell-based, human; details: hypoxia (1% oxygen); cell line not given
Description: as §1, with “hypoxia.” for “hypoxia. N=4 biological replicates; statistical significance was determined using unpaired t test (Two-tailed). k, Immunoblots of acid extracted histones from MCF-7 cells under hypoxia (1% oxygen) for indicated time points. a, d, f, j, Graphs show mean with s.e.m. b, c, g, h, i, k, Data represent three independent experiments.”

[5] = biological target: T1, recombinant chromatin (p53- and p300-dependent) (Homo sapiens, UniProt Q09472); assay: Cell-free recombinant chromatin-templated histone modification and transcription assay; format: biochemical; details: acetyl-CoA replaced by L-lactyl-CoA
T1 construct: made in house
T1 sequence (Q09472 whole entry): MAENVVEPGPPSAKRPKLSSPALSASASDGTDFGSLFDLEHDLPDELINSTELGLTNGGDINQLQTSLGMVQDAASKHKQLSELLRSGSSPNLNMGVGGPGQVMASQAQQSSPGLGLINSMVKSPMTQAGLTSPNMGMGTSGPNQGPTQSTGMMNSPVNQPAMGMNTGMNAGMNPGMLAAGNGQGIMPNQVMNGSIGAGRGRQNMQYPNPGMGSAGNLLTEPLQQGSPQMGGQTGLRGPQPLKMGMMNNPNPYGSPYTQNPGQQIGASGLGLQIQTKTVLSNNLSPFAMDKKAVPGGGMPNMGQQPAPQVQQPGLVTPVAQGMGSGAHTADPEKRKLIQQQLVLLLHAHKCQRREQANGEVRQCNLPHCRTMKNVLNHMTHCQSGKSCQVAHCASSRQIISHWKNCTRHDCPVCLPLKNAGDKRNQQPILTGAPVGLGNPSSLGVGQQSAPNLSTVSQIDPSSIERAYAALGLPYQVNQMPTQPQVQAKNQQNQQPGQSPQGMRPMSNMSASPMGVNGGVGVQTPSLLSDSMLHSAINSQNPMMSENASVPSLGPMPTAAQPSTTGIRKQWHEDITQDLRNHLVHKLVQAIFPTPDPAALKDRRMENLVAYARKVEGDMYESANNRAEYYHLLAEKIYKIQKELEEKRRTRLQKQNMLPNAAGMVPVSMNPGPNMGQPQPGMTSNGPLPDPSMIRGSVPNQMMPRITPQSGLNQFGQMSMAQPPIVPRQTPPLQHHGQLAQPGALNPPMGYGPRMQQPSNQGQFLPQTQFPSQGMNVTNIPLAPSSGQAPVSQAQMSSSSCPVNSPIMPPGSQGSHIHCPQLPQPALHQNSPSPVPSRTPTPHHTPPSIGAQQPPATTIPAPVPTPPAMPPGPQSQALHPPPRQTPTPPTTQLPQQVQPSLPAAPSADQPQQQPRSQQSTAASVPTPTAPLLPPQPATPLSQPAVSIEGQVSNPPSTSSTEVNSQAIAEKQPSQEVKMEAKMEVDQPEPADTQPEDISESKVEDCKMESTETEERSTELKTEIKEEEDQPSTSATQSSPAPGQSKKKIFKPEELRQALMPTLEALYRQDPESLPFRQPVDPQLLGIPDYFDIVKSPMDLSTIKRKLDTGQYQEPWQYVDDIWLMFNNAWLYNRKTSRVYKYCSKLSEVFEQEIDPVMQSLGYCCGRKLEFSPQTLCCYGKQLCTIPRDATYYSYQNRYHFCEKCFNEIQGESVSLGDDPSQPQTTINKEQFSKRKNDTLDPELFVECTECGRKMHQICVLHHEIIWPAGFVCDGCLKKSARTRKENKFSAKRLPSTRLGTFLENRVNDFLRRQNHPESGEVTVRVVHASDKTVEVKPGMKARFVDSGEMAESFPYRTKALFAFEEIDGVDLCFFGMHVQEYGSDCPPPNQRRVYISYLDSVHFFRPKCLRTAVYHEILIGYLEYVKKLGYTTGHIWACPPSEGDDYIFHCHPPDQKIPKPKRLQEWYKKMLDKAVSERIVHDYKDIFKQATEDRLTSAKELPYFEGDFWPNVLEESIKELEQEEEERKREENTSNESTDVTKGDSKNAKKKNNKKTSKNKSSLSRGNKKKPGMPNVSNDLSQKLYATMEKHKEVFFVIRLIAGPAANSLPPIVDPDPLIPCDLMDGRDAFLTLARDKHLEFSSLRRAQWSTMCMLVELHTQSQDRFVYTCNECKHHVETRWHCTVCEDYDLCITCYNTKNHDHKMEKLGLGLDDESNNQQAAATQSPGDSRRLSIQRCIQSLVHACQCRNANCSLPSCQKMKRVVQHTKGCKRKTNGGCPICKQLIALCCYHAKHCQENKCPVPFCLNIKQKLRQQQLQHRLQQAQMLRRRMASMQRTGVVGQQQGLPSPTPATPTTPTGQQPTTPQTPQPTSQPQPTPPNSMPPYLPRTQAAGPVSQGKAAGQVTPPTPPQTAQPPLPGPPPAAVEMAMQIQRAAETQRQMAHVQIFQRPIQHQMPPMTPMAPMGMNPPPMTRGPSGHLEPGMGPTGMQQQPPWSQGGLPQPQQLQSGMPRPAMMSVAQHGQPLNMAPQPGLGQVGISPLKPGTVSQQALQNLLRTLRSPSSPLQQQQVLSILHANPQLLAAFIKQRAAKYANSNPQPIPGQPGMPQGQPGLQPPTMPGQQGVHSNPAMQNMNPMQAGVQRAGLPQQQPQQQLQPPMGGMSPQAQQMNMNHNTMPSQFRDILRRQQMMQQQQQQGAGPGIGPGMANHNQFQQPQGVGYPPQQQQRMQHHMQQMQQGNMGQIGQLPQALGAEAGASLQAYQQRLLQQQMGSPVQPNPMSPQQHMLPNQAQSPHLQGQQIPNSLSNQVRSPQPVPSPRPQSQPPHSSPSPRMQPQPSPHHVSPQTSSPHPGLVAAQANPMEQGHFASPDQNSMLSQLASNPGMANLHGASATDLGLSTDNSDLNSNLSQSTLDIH
Description: To examine the potential activity of p300 as a histone Kla writer in cells, we over-expressed p300 in HEK293T cells and observed a modest increase in histone Kla levels. In contrast, p300 deletion in HCT116 and HEK293T cells decreased histone Kla levels.
Purification of recombinant proteins and chromatin assembly were performed as previously described (Tang et al., Cell 154, 297-310, doi:10.1016/j.cell.2013.06.027 (2013)). The chromatin-templated histone modification and transcription assays were as described previously (Tang et al., Cell 154, 297-310, doi:10.1016/j.cell.2013.06.027 (2013)), except that lactyl-CoA was used in place of acetyl-CoA and [α-32P] CTP was used in place of [α-32P]-UTP. The H3KR, H4KR, H2AKR, and H2BKR histone mutants were the same as previously described (Tang et al., Cell 154, 297-310, doi:10.1016/j.cell.2013.06.027 (2013)). Histone modifications were monitored by immunoblot and transcription products were monitored by autoradiography as described (Tang et al., Cell 154, 297-310, doi:10.1016/j.cell.2013.06.027 (2013)).

BMDM cells = assay: M1 polarization (LPS+IFNγ) of BMDM cells: lactate, histone Kla, gene expression, ChIP-qPCR; format: cell-based, mouse
Description: Intracellular lactate levels were measured using a lactate colorimetric kit (a) and global histone Kla levels were measured by immunoblots (b) 24 h-post M1 polarization. c, Gene expression were analyzed by RT-qPCR at indicated time points after M1 polarization. a-c, N=3 biological replicates. d, H3K18la occupancy was analyzed by ChIP-qPCR 24 h-post M1 polarization. Data represent three technical replicates from pooled samples. e-h, Exogeneous lactic acid (25 mM) was added to BMDM cells 4 h post-M1 polarization (LPS+IFNγ), and cells were collected at indicated time points post-M1 polarization for intracellular lactate measurement (e), histone Kla immunoblot analysis (f), gene expression analysis (g) and H3K18la occupancy analysis by ChIP-qPCR (h). e, N=3 biological replicates, f, Data represent three independent experiments. g, RPKM: Reads Per Kilobase of transcript per Million mapped reads (RPKM). N=4 biological replicates. h, Data represent three technical replicates from pooled samples. a, c, d, e, g, h, Graphs show mean with s.e.m; statistical significance was determined using Multiple t tests corrected using Holm-Sidak method (a, c, e, g).
All animal use and experiments performed were approved by Institutional Animal Care and Use Committee (ACUP #72209) at the University of Chicago. Ldha^fl/fl mice (Jackson laboratory, 030112) and LysMcre mice (Jackson laboratory, 004781) were used to generate LysMcre^+/−Ldha^fl/fl and littermate control LysMcre^−/− Ldha^fl/fl mice. The following primers were used for genotyping: Ldha forward: […] (SEQ ID NO: 88) and Ldha reverse: […] (SEQ ID NO: 89). LysMcre: […] (SEQ ID NO: 90), LysM Common: […] (SEQ ID NO: 91) and LysM WT: […] (SEQ ID NO: 92). Macrophages were derived from bone marrow of 8-week male C57BL/6 mice following the published procedure. To induce an M1 or M2 phenotype, BMDM cells were stimulated with 5 ng/ml of LPS and 12 ng/ml of IFNγ or 20 ng/ml of interleukin 4, for 24 hours or the indicated time. To infect BMDM cells with bacteria, overnight cultures of E. coli, A. baumannii, or P. aeruginosa were diluted in RPMI-1640 and added to BMDM cells in 6-well plates at 2 and 20 multiplicity of infection. A control plate was either infected with paraformaldehyde-killed bacteria or treated with 5 ng/mL lipopolysaccharide (LPS) in the absence of bacteria. The plates were centrifuged at 2170 rpm for 30 min to promote infection, followed by a 30 min incubation in a humidified incubator at 37° C. under 5% CO2. To kill extracellular bacteria, the medium overlying the confluent cell monolayer was replaced with fresh media containing gentamicin at 100 μg/mL and the plates were further incubated for 1 h. Following incubation, media were removed from infected cells and replaced with fresh media containing 25 μg/mL of gentamicin. For consistency, LPS-treated cells and cells infected with dead bacteria were also treated with gentamicin. Cells were cultured for 24 h before lysis. Allocation of BMDM cells into different treated groups were randomized and not blinded.
Total RNA was extracted from BMDM cells activated as indicated using a RNeasy Plus Mini Kit (74134, Qiagen, Hilden, Germany). Two to four micrograms of total RNA were used as starting material to prepare libraries using Illumina TruSeq Stranded mRNA Library Prep Kit Set A (RS-122-2101, Illumina, San Diego, CA). The libraries' size was selected by using the Agencourt AMPure XP beads (A63882, Beckman Coulter, Brea, CA), with average size of 400 bp. The libraries were sequenced using Illumina HiSeq 4000 (pair end 50 bp).
Native ChIP was carried out following the published protocol (Cuddapah et al., Cold Spring Harb Protoc 2009, pdb prot5237, doi:10.1101/pdb.prot5237 (2009)) with spiked-in for normalization purpose. Spike-in was carried out according to vendor protocols (#61686, Active motif, Carlsbad, CA). […]

BMDMs = assay: U-13C6 glucose labeling of histone Kla and Kac in BMDMs during M1 polarization; format: cell-based, mouse
From the text: All animal use and experiments performed were approved by Institutional Animal Care and Use Committee (ACUP #72209) at the University of Chicago. Ldha^fl/fl mice (Jackson laboratory, 030112) and LysMcre mice (Jackson laboratory, 004781) were used to generate LysMcre^+/−Ldha^fl/fl and littermate control LysMcre^−/− Ldha^fl/fl mice. The following primers were used for genotyping: Ldha forward: […] (SEQ ID NO: 88) and Ldha reverse: […] (SEQ ID NO: 89). LysMcre: […] (SEQ ID NO: 90), LysM Common: […] (SEQ ID NO: 91) and LysM WT: […] (SEQ ID NO: 92). Macrophages were derived from bone marrow of 8-week male C57BL/6 mice following the published procedure. To induce an M1 or M2 phenotype, BMDM cells were stimulated with 5 ng/ml of LPS and 12 ng/ml of IFNγ or 20 ng/ml of interleukin 4, for 24 hours or the indicated time. To infect BMDM cells with bacteria, overnight cultures of E. coli, A. baumannii, or P. aeruginosa were diluted in RPMI-1640 and added to BMDM cells in 6-well plates at 2 and 20 multiplicity of infection. […]
The peptide samples were loaded onto a home-made capillary column (10 cm length×[…], 3 μm particle size, Dr. Maisch GmbH, Ammerbuch, Germany) connected to an EASY-nLC 1000 system (Thermo Fisher Scientific, Waltham, MA). […] The eluted peptides were then ionized and analyzed by a Q-Exactive mass spectrometer (Thermo Fisher Scientific, Waltham, MA). […]

[6] = M1 polarization, exogenous lactate
[7] = exogenous lactic acid 25 mM added 4 h post-M1 polarization

Compound: O=CC[C@@H](O)[C@H](O)[C@H](O)CO [2-DG, 2-deoxy-D-glucose]
histone Kla levels (MCF-7 cells [1]): decreased
intracellular lactate levels / lactate production (MCF-7 cells [2]): decreased

Compound: O=C([O-])C(Cl)Cl.[Na+] [DCA, Sodium dichloroacetate]
incorporation of 13C into histone Kac (MCF-7 cells [3]): but not Kac was decreased
incorporation of 13C into histone Kla (MCF-7 cells [3]): decreased
histone Kla levels (MCF-7 cells [1]): lowered
intracellular lactate levels / lactate production (MCF-7 cells [2]): decreased
induction of histone Kla by hypoxia (MCF-7 cells [4]): attenuated
induction of lactate production by hypoxia (MCF-7 cells [4]): attenuated

transcription ([5]; autoradiography): a corresponding effect on transcription
Compound: C[C@H](O)C(=O)SCCNC(=O)CCNC(=O)[C@H](O)C(C)(C)COP(=O)(O)OP(=O)(O)OC[C@H]1O[C@@H](n2cnc3c(N)ncnc32)[C@H](O)[C@@H]1OP(=O)(O)O [L-lactyl-CoA]
H3 and H4 lactylation ([5]; immunoblot): robust p53-dependent, p300-mediated H3 and H4 lactylation

Compound: C[C@H](O)C(=O)O [lactate, L-(+)-lactic acid]
early pro-inflammatory gene expression (BMDM cells; [6]): did not affect
expression of other M2-like genes, such as Vegfa (BMDM cells; [6]): enhanced
Arg1 expression (BMDM cells; [7]): induced
intracellular lactate (BMDM cells; [7]): increased
histone Kla levels (BMDM cells; exogenous lactic acid 25 mM added 4 h post-M1 polarization, immunoblot): increased
Kla levels at the Arg1 promoter (BMDM cells; exogenous lactic acid 25 mM, H3K18la ChIP-qPCR): induced
histone Kla levels (MCF-7 cells [1]): elevated in a dose-dependent fashion

Compound: C=C(C)[C@H]1Cc2c(ccc3c2O[C@@H]2COc4cc(OC)c(OC)cc4[C@@H]2C3=O)O1 [rotenone]
histone Kla levels (MCF-7 cells [1]): increased
intracellular lactate levels / lactate production (MCF-7 cells [2]): increased

Compound: GNE-140
13C incorporation into histone Kla (BMDMs): reduced
